One test deals with thrombin. The settings on record: administration to a subarachnoid hemorrhage animal model; cited from earlier work.
In a further test the target is T1, PAR1 (Oryctolagus cuniculus, UniProt G1TTP8).
T1 construct: from tissue; host or cells: rabbit basilar artery (E5555 co-injected with autologous blood into the cistern; artery rings tested ex vivo)
T1 sequence (G1TTP8 1-460): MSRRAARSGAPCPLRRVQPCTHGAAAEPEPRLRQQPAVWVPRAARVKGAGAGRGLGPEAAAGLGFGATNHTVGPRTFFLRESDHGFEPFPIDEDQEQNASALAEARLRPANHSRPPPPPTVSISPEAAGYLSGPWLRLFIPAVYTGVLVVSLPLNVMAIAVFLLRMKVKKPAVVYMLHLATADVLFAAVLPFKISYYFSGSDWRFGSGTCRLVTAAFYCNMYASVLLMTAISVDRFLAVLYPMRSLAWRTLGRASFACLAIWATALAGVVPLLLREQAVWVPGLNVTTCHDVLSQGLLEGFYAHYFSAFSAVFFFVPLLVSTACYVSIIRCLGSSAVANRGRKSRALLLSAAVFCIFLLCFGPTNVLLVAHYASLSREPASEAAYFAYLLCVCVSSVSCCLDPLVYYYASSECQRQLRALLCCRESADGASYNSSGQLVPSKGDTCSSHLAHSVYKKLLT
The test can be described thus: Effect of PAR1 antagonist on contractile response of rabbit basilar arteries to thrombin (rabbit double-hemorrhage SAH model). Format: in vivo. How it is done: (§1) First, 2.5 ml each of autologous arterial blood was injected into the cisterna magnas twice on Days 0 and 2. Hereinafter, this group is also referred to herein as the “SAH group”. Models injected with equal amounts of saline instead of autologous arterial blood constituted the control group. On Day 7, rabbits from each group were euthanized and endotheliums were removed from the dissected basilar arteries to produce ring preparations (500 μm in width) (FIG. 2). The endothelium-removed basilar artery ring preparations produced in this example were used to perform experiments on contractile response in the following examples.
(§2) Contractile responses to thrombin were determined for the rabbit basilar arteries from the control group and the SAH group. Following contractile response induced by 118 mM K+ depolarization stimulation, the basilar artery ring preparations were stimulated with thrombin. Thrombin is an endogenous ligand of PAR1.
Contractile responses of the rabbit basilar arteries to thrombin were determined for the control group (sham surgery group), the SAH group and the SAH group coexisting with the PAR1 antagonist. Stimulation was given in the same manner as in Example 3.
In this example, the “sham surgery group (sham)” (control rabbit) refers to those obtained by injecting 3 ml saline twice into rabbit cisterns on Days 0 and 2, the “SAH group”(subarachnoid hemorrhage model) refers to those obtained by injecting 3 ml autologous blood twice into rabbit cisterns on Days 0 and 2, and the “SAH+E5555 group” (E5555-administered subarachnoid hemorrhage model) refers to those obtained by injecting 3 ml autologous blood supplemented with 600 μg E5555 twice into rabbit cisterns on Days 0 and 2.
On Day 7, the basilar arteries were removed to assess contractile responses to 118 mM K+ and 1 unit/ml thrombin.
In the same manner as Example 10, contractile responses of the rabbit basilar arteries to thrombin were determined for the control group (the sham surgery group), the SAH group and the SAH group coexisting with the PAR1 antagonist.
In this example, 3 ml each of autologous blood supplemented with 60 ng, 600 ng, 6 μg or 60 μg of E5555 was injected twice into rabbit cistern on Days 0 and 2.

Test [1] concerns rabbit basilar arteries. In words: Effect of heparinized autologous blood on increased contractile response in SAH group. It counts as in vivo. Particulars: models injected twice with heparinized autologous blood (SAH+heparin). Here is the method:
as §1
In order to find out the effect of heparin on this increase in the contractile response, an experiment was conducted according to the method of Example 1 using models that had been injected twice with heparinized autologous blood. Heparin forms a complex with anti-thrombin III and becomes an anticoagulant that inactivates blood coagulation factor.

Test [2] concerns α toxin-skinned basilar arteries. The test can be described thus: Contractile responses of α toxin-skinned basilar arteries to thrombin and PAR1-AP. The arrangement: species or system rabbit. Here is the method:
Alpha toxin is a substance that confers permeability to cell membrane. In a rabbit basilar artery that is treated with α toxin for permeabilization (hereinafter, also referred to as an “a toxin-skinned basilar artery”), contractile response associated with increase in calcium ion concentration and contractile response to GTPγS that activates G protein were measured.
Next, contractile responses of a toxin-skinned basilar arteries to thrombin and PAR1-AP were measured.

The subject of test [3] is rabbit basilar arteries. The test can be described thus: Contractile responses of endothelium-removed rabbit basilar artery ring preparations to thrombin / PAR1-AP. How it is done: as §1, §2
Same experiment as Example 3 was performed using PAR1-AP (PAR1-activating peptide) instead of thrombin.

“Also recorded” adds a separate entry of the source. Bounds are passed on as bounds.

These results are taken from US20100063048A1, “Remedy for angiospasm accompanying subarachnoid hemorrhage containing thrombin receptor antagonist as the active ingredient” (Eisai R&D Mangement Co., Ltd., priority 2004, published 2010).

For the molecule `N=C(N)c1ccc2cc(OC(=O)c3ccc(N=C(N)N)cc3)ccc2c1` [FUT-175], the angiospasm entry in the test with thrombin was “suppress angiospasm”.
For the molecule `CCOc1cc2c(c(F)c1OCC)C(=N)N(CC(=O)c1cc(N3CCOCC3)c(OC)c(C(C)(C)C)c1)C2` [Formula E5555], the “contractile response of basilar arteries to 1 unit/ml thrombin” value is listed as “smaller than that for the SAH group” at PAR1 (SAH+E5555 (6 μg) group: autologous blood supplemented with 6 μg injected twice on Days 0 and 2, vs SAH group); “significantly suppressed” on PAR1 (SAH+E5555 (6 μg) group: autologous blood supplemented with 6 μg injected twice on Days 0 and 2, vs SAH group, listed as E5050); “significantly suppressed” on PAR1 (SAH+E5555 (60 μg) group: autologous blood supplemented with 60 μg injected twice on Days 0 and 2, vs SAH group); “contraction by 1 unit/ml thrombin was small; also recorded: significantly suppressed the increased reactivity to thrombin” at PAR1 (SAH+E5555 group: 3 ml autologous blood supplemented with 600 μg E5555 injected twice into cisterns on Days 0 and 2, arteries removed Day 7, n=3). Moreover, the “dose of E5555 suppressing increased reactivity to thrombin caused by subarachnoid hemorrhage (dose-dependent)” value at PAR1 (co-administration with autologous blood, 60 ng to 60 μg tested, 1 unit/ml thrombin) is not below 60 ng.
Consider anti-thrombin III, for which the angiospasm result in the test with thrombin is listed as “suppress angiospasm”.
On to heparin, for which the “increasement in the contractile response to PAR1-AP” value with rabbit basilar arteries [1] is recorded as “decreased significantly”. Further, the “contractile response to thrombin” value in the test with rabbit basilar arteries [1] (thrombin 1 unit/nil) amounted to 41.6±3.0%.
As to thrombin, the entries for the “effect on contractile response induced by calcium ion” value in test [2] (SAH group) and in test [2] (control group) were “significantly increased” and “had no effect”, respectively. Moreover, the “concentration from which significant continuous contraction is induced” value with rabbit basilar arteries [3] (SAH group) is not below 0.3 units/ml. Moreover, in the test on rabbit basilar arteries [3] (SAH group, Day 7, 1 unit/ml thrombin or 100 μM PAR1-AP), the “reversibility of contractile response on washing” value is “not changed by washing”. The “contractile force (% of 118 mM K+-induced contraction)” value with rabbit basilar arteries [3] (SAH group, thrombin 1 unit/ml) stood at 73.1±2.8%; with rabbit basilar arteries [3] (control group, thrombin 10 units/ml, mild temporary contraction) it was 21.3±1.2%. For the same molecule, in the test on rabbit basilar arteries [3] (control group, thrombin 1 unit/ml), the contraction entry is “did not induce contraction”.
